Experimental data published in patent US20210298306A1, “PESTICIDALLY ACTIVE AZOLE-AMIDE COMPOUNDS” (SYNGENTA PARTICIPATIONS AG, priority 2018, published 2021).

How the values were obtained:
Format in all cases: in vivo
[1] = tested on: Diabrotica balteata; assay: Example B1: Diabrotica balteata (corn root worm), maize sprouts sprayed, L2 larvae; conditions: 96 h, application rate 200 ppm, 4 days after infestation, read-out: effect in at least one of the two categories (mortality or growth inhibition)
Protocol: Example B1: Diabrotica Balteata (Corn Root Worm)
Maize sprouts placed onto an agar layer in 24-well microtiter plates were treated with aqueous test solutions prepared from 10,000 ppm DMSO stock solutions by spraying. After drying, the plates were infested with L2 larvae (6 to 10 per well). The samples were assessed for mortality and growth inhibition in comparison to untreated samples 4 days after infestation.
(§1) The following compounds gave an effect of at least 80% in at least one of the two categories (mortality or growth inhibition) at an application rate of 200 ppm: […]

[2] = tested on: Euschistus heros; assay: Example B2: Euschistus heros (neotropical brown stink bug), soybean leaves sprayed, N2 nymphs; conditions: 120 h, application rate 200 ppm, 5 days after infestation, read-out: effect in at least one of the two categories (mortality or growth inhibition)
Protocol: Example B2: Euschistus heros (Neotropical Brown Stink Bug)
Soybean leaves on agar in 24-well microtiter plates were sprayed with aqueous test solutions prepared from 10,000 ppm DMSO stock solutions. After drying the leaves were infested with N2 nymphs. The samples were assessed for mortality and growth inhibition in comparison to untreated samples 5 days after infestation.
as §1

[3] = tested on: Plutella xylostella; assay: Example B4: Plutella xylostella (diamond back moth), artificial diet, 24-well, eggs; conditions: 192 h, application rate 200 ppm, 8 days after infestation, read-out: effect in at least one of the two categories (mortality or growth inhibition)
Protocol: Example B4: Plutella xylostella (Diamond Back Moth)
24-well microtiter plates with artificial diet were treated with aqueous test solutions prepared from 10,000 ppm DMSO stock solutions by pipetting. After drying, Plutella eggs were pipetted through a plastic stencil onto a gel blotting paper and the plate was closed with it. The samples were assessed for mortality and growth inhibition in comparison to untreated samples 8 days after infestation.
as §1

[4] = tested on: Myzus persicae; assay: Example B6: Myzus persicae (green peach aphid), intrinsic activity, sucrose solution, 24-well; conditions: 120 h, test rate 12 ppm, 5 days after infestation
Description: Example B6: Myzus persicae (Green Peach Aphid). Intrinsic Activity
Test compounds prepared from 10,000 ppm DMSO stock solutions were applied by pipette into 24-well microtiter plates and mixed with sucrose solution. The plates were closed with a stretched Parafilm. A plastic stencil with 24 holes was placed onto the plate and infested pea seedlings were placed directly on the Parafilm. The infested plate was closed with a gel blotting paper and another plastic stencil and then turned upside down. The samples were assessed for mortality 5 days after infestation.

[5] = tested on: Spodoptera littoralis; assay: Example B7: Spodoptera littoralis (Egyptian cotton leaf worm), cotton leaf discs sprayed, L1 larvae; conditions: foliar, 72 h, application rate 200 ppm, 3 days after infestation, read-out: control in at least one of the categories (mortality, anti-feedant effect, or growth inhibition)
Protocol: Example B7: Spodoptera littoralis (Egyptian Cotton Leaf Worm)
Cotton leaf discs were placed onto agar in 24-well microtiter plates and sprayed with aqueous test solutions prepared from 10,000 ppm DMSO stock solutions. After drying the leaf discs were infested with five L1 larvae. The samples were assessed for mortality, anti-feeding effect, and growth inhibition in comparison to untreated samples 3 days after infestation. Control of Spodoptera littoralis by a test sample is given when at least one of the categories mortality, anti-feedant effect, and growth inhibition is higher than the untreated sample.

[6] = tested on: Thrips tabaci; assay: Example B9: Thrips tabaci (onion thrips), feeding/contact activity, sunflower leaf discs; conditions: foliar, 144 h; application rate 200 ppm; 6 days after infestation; Thrips tabaci mixed ages
Protocol: Example B9: Thrips tabaci (Onion Thrips) Feeding/Contact Activity
Sunflower leaf discs were placed on agar in 24-well microtiter plates and sprayed with aqueous test solutions prepared from 10,000 ppm DMSO stock solutions. After drying the leaf discs were infested with a thrips population of mixed ages. The samples were assessed for mortality 6 days after infestation.

[7] = tested on: Spodoptera littoralis; assay: Example B8: Spodoptera littoralis (Egyptian cotton leaf worm), uptake by lettuce roots from agar, eggs; conditions: 144 h, test rate 12.5 ppm, 6 days after infestation, lettuce root uptake, read-out: effect in at least one of the three categories (mortality, anti-feeding, or growth inhibition)
Description: Example B8: Spodoptera littoralis (Egyptian Cotton Leaf Worm)
Test compounds were applied by pipette from 10,000 ppm DMSO stock solutions into 24-well plates and mixed with agar. Lettuce seeds were placed onto the agar and the multi well plate was closed by another plate which contained also agar. After 7 days the compound was absorbed by the roots and the lettuce grew into the lid plate. The lettuce leaves were then cut off into the lid plate. Spodoptera eggs were pipetted through a plastic stencil onto a humid gel blotting paper and the lid plate was closed with it. The samples were assessed for mortality, anti-feedant effect and growth inhibition in comparison to untreated samples 6 days after infestation.
The following compounds gave an effect of at least 80% in at least one of the three categories (mortality, anti-feeding, or growth inhibition) at a test rate of 12.5 ppm: […]

[8] = tested on: Myzus persicae; assay: Example B5: Myzus persicae (green peach aphid), feeding/contact activity, sunflower leaf discs; conditions: foliar, 144 h, application rate 200 ppm, 6 days after infestation, Myzus persicae mixed ages
Protocol: Example B5: Myzus persicae (Green Peach Aphid):Feeding/Contact Activity
Sunflower leaf discs were placed onto agar in a 24-well microtiter plate and sprayed with aqueous test solutions prepared from 10,000 ppm DMSO stock solutions. After drying, the leaf discs were infested with an aphid population of mixed ages. The samples were assessed for mortality 6 days after infestation.

CC(c1ncnn1-c1ncccn1)N(CC1CC1)C(=O)c1cc(C(F)F)cc(C(F)(F)F)c1 (centres unmarked) [P1, N-(cyclopropylmethyl)-3-(difluoromethyl)-N-[1-(2-pyrimidin-2-yl-1,2,4-triazol-3-yl)ethyl]-5-(trifluoromethyl) benzamide]
≥ 80%: percent effect (mortality or growth inhibition) at 200 ppm [1] | percent effect (mortality or growth inhibition) at 200 ppm [2] | percent effect (mortality or growth inhibition) at 200 ppm [3] | mortality at 12 ppm [4] | percent control (mortality, anti-feedant effect or growth inhibition) at 200 ppm [5] | mortality at 200 ppm [6]

CC(c1ncnn1-c1ncccn1)N(CC1CC1)C(=O)c1cc(OC(F)(F)C(F)F)cc(C(F)(F)F)c1 (centres unmarked) [P3, N-(cyclopropylmethyl)-N-[1-(2-pyrimidin-2-yl-1,2,4-triazol-3-yl)ethyl]-3-(1,1,2,2-tetrafluoroethoxy)-5-(trifluoromethyl)benzamide]
≥ 80%: percent effect (mortality or growth inhibition) at 200 ppm [1] | percent effect (mortality or growth inhibition) at 200 ppm [2] | percent effect (mortality or growth inhibition) at 200 ppm [3] | mortality at 12 ppm [4] | percent control (mortality, anti-feedant effect or growth inhibition) at 200 ppm [5] | percent effect (mortality, anti-feeding or growth inhibition) at 12.5 ppm [7] | mortality at 200 ppm [6]

CC(NC(=O)c1cc(SCC(F)(F)F)cc(C(F)(F)F)c1)c1ncnn1-c1ncccn1 (centres unmarked) [P6, N-[1-(2-pyrimidin-2-yl-1,2,4-triazol-3-yl)ethyl]-3-(2,2,2-trifluoroethylsulfanyl)-5-(trifluoromethyl) benzamide]
≥ 80%: percent effect (mortality or growth inhibition) at 200 ppm [1] | percent effect (mortality or growth inhibition) at 200 ppm [3] | percent control (mortality, anti-feedant effect or growth inhibition) at 200 ppm [5]

CC(NC(=O)c1cc(OCC(F)(F)F)cc(C(F)(F)F)c1)c1ncnn1-c1ncccn1 (centres unmarked) [P7, N-[1-(2-pyrimidin-2-yl-1,2,4-triazol-3-yl)ethyl]-3-(2,2,2-trifluoroethoxy)-5-(trifluoromethyl) benzamide]
≥ 80%: percent effect (mortality or growth inhibition) at 200 ppm [1] | percent effect (mortality or growth inhibition) at 200 ppm [2] | percent effect (mortality or growth inhibition) at 200 ppm [3] | mortality at 200 ppm [8] | mortality at 12 ppm [4] | percent control (mortality, anti-feedant effect or growth inhibition) at 200 ppm [5]

CC(NC(=O)c1cc(OC(F)F)cc(C(F)(F)F)c1)c1ncnn1-c1ncccn1 (centres unmarked) [P8, 3-(difluoromethoxy)-N-[1-(2-pyrimidin-2-yl-1,2,4-triazol-3-yl)ethyl]-5-(trifluoromethyl) benzamide]
≥ 80%: percent effect (mortality or growth inhibition) at 200 ppm [1] | percent effect (mortality or growth inhibition) at 200 ppm [2] | percent effect (mortality or growth inhibition) at 200 ppm [3] | mortality at 200 ppm [8] | mortality at 12 ppm [4] | percent control (mortality, anti-feedant effect or growth inhibition) at 200 ppm [5] | percent effect (mortality, anti-feeding or growth inhibition) at 12.5 ppm [7] | mortality at 200 ppm [6]

CC(NC(=O)c1cc(SCC(F)(F)F)cc(C(F)(F)F)c1)c1ncnn1-c1ccccn1 (centres unmarked) [P9, N-[1-[2-(2-pyridyl)-1,2,4-triazol-3-yl]ethyl]-3-(2,2,2-trifluoroethylsulfanyl)-5-(trifluoromethyl) benzamide]
≥ 80%: percent effect (mortality or growth inhibition) at 200 ppm [1] | percent effect (mortality or growth inhibition) at 200 ppm [3]

CC(NC(=O)c1cc(OCC(F)(F)F)cc(C(F)(F)F)c1)c1ncnn1-c1ccccn1 (centres unmarked) [P10, N-[1-[2-(2-pyridyl)-1,2,4-triazol-3-yl]ethyl]-3-(2,2,2-trifluoroethoxy)-5-(trifluoromethyl) benzamide]
≥ 80%: percent effect (mortality or growth inhibition) at 200 ppm [1] | percent effect (mortality or growth inhibition) at 200 ppm [2] | percent effect (mortality or growth inhibition) at 200 ppm [3] | percent control (mortality, anti-feedant effect or growth inhibition) at 200 ppm [5]

CC(NC(=O)c1cc(OC(F)F)cc(C(F)(F)F)c1)c1ncnn1-c1ccccn1 (centres unmarked) [P11, 3-(difluoromethoxy)-N-[1-[2-(2-pyridyl)-1,2,4-triazol-3-yl]ethyl]-5-(trifluoromethyl) benzamide]
≥ 80%: percent effect (mortality or growth inhibition) at 200 ppm [1] | percent effect (mortality or growth inhibition) at 200 ppm [3] | percent control (mortality, anti-feedant effect or growth inhibition) at 200 ppm [5] | percent effect (mortality, anti-feeding or growth inhibition) at 12.5 ppm [7]

CC(NC(=O)c1cc(OC(F)F)cc(C(F)(F)F)c1)c1ncnn1-c1ncccc1F (centres unmarked) [P12, 3-(difluoromethoxy)-N-[1-[2-(3-fluoro-2-pyridyl)-1,2,4-triazol-3-yl]ethyl]-5-(trifluoromethyl) benzamide]
≥ 80%: percent effect (mortality or growth inhibition) at 200 ppm [1] | percent effect (mortality or growth inhibition) at 200 ppm [2] | percent effect (mortality or growth inhibition) at 200 ppm [3] | percent control (mortality, anti-feedant effect or growth inhibition) at 200 ppm [5]

CC(NC(=O)c1cc(SCC(F)(F)F)cc(C(F)(F)F)c1)c1ncnn1-c1ncccc1F (centres unmarked) [P13, N-[1-[2-(3-fluoro-2-pyridyl)-1,2,4-triazol-3-yl]ethyl]-3-(2,2,2-trifluoroethylsulfanyl)-5-(trifluoromethyl) benzamide]
≥ 80%: percent effect (mortality or growth inhibition) at 200 ppm [1]

CC(NC(=O)c1cc(OC(F)F)cc(C(F)(F)F)c1)c1ncnn1-c1ccc(F)cn1 (centres unmarked) [P15, 3-(difluoromethoxy)-N-[1-[2-(5-fluoro-2-pyridyl)-1,2,4-triazol-3-yl]ethyl]-5-(trifluoromethyl) benzamide]
≥ 80%: percent effect (mortality or growth inhibition) at 200 ppm [1] | percent effect (mortality or growth inhibition) at 200 ppm [2] | percent effect (mortality or growth inhibition) at 200 ppm [3] | mortality at 12 ppm [4] | percent control (mortality, anti-feedant effect or growth inhibition) at 200 ppm [5] | percent effect (mortality, anti-feeding or growth inhibition) at 12.5 ppm [7]

CC(NC(=O)c1cc(SCC(F)(F)F)cc(C(F)(F)F)c1)c1ncnn1-c1ccc(F)cn1 (centres unmarked) [P16, N-[1-[2-(5-fluoro-2-pyridyl)-1,2,4-triazol-3-yl]ethyl]-3-(2,2,2-trifluoroethylsulfanyl)-(trifluoromethyl) benzamide]
≥ 80%: percent effect (mortality or growth inhibition) at 200 ppm [1] | percent effect (mortality or growth inhibition) at 200 ppm [3] | percent control (mortality, anti-feedant effect or growth inhibition) at 200 ppm [5]

CC(NC(=O)c1cc(OCC(F)(F)F)cc(C(F)(F)F)c1)c1ncnn1-c1ccc(F)cn1 (centres unmarked) [P17, N-[1-[2-(5-fluoro-2-pyridyl)-1,2,4-triazol-3-yl]ethyl]-3-(2,2,2-trifluoroethoxy)-5-(trifluoromethyl) benzamide]
≥ 80%: percent effect (mortality or growth inhibition) at 200 ppm [1] | percent effect (mortality or growth inhibition) at 200 ppm [2] | percent effect (mortality or growth inhibition) at 200 ppm [3] | percent control (mortality, anti-feedant effect or growth inhibition) at 200 ppm [5]

CC(NC(=O)c1cncc(OC(F)F)c1)c1ncnn1-c1ncccc1F (centres unmarked) [P22, 5-(difluoromethoxy)-N-[1-[2-(3-fluoro-2-pyridyl)-1,2,4-triazol-3-yl]ethyl]pyridine-3-carboxamide]
≥ 80%: percent effect (mortality or growth inhibition) at 200 ppm [3]

CC(NC(=O)c1cncc(OC(F)F)c1)c1ncnn1-c1ncccn1 (centres unmarked) [P24, 5-(difluoromethoxy)-N-[1-(2-pyrimidin-2-yl-1,2,4-triazol-3-yl)ethyl]pyridine-3-carboxamide]
≥ 80%: percent effect (mortality or growth inhibition) at 200 ppm [1] | percent effect (mortality or growth inhibition) at 200 ppm [2] | mortality at 200 ppm [8]
